Experimental data reported in US11208433B2, “Peptide for inhibiting skin inflammation and composition for preventing or treating skin inflammation containing the same” (AVIXGEN Inc., priority 2017, dated 2021).

How the values were obtained:
[1] = system: atopic mouse skin tissues; assay: Immunohistochemical staining of atopic mouse skin tissue (angiogenic marker, inflammatory cells, keratin); assay type: in vivo, NC/Nga mouse; settings: atopic mouse skin tissue, also similar to prednisolone treated group
Description: (§1) After the ear auricle of the NC/Nga mouse was shaved with a razor, the epilating agent was applied in an appropriate amount for the complete depilation. After the epilating agent was wiped off, Then, 100 mg of the AD-inducing reagent shown in Table 2 as below was uniformly applied to the ear auricle using a micropipette tip, thereby inducing atopic dermatitis for the first time.
(§2) After shaving with a razor for necessary, 150 μL of a 4% SDS aqueous solution was uniformly applied to the ear auricle using a micropipette, dried with a cold air using a dryer, and air-dried for about 2 to 3 hours. Then, 100 mg of the same AD-inducing reagent was uniformly applied to the ear auricle using a micropipette tip, thereby inducing atopic dermatitis after 2 times. All treatments were carried out twice a week to be 6 times for a total of 3 weeks, thereby producing atopic dermatitis animal model.
(§3) The mice of groups 2 to 5 were obtained by the atopic dermatitis animal model prepared in Experimental Method 3 as described above.
(§4) The experimental substance and the control substance were uniformly applied to the ear auricle using a micropipette tip. From the day of the experimental substance administration (Day 0) to the day of the autopsy (Day 14), they were administered once a day for 2 weeks.
Atopy mouse skin tissues were immersed in Xylene three times for 5 minutes, 100% ethanol for 2 minutes, 95% ethanol for 2 minutes, 90% ethanol for 2 minutes, 70% ethanol for 2 minutes and D.W. for 2 minutes to remove paraffin and to perform hydration. After washing with PBS, they were treated with 0.2% Triton X-100 to increase cell permeability. After re-washing with PBS, they were reacted with blocking solution, 3% bovine serum albumin, for 1 hour. For inflammatory cells and keratin staining, they were reacted with F4/80 (sc-377009, Santa Cruz) and cytokeratin (NB600-579, NOVUSBIO) antibodies, respectively, at room temperature for 2 hours. After washing with PBS, they were treated with Texas Red (ab6787, Abcam) secondary antibody and reacted at room temperature for 60 minutes. The mounting solution was dropped on the tissue of the slide. Then, the tissue was covered with a cover slide, and the sample was observed under a fluorescence microscope. For analysis of the degree of angiogenesis, the atopic skin tissue was reacted with FITC-conjugated isolectin B4 (L2895, Sigma), a blood vessel marker at room temperature for 2 hours. The mounting solution was dropped on the tissue of the slide. Then, the tissue was covered with a cover slide, and the sample was observed under a fluorescence microscope
The mouse skin tissues stained with the respective markers were photographed using a fluorescence microscope (DMil, Leica, Germany), and fluorescence intensities were quantitatively analyzed using an ImageJ program (NIH, Bethesda, Md., USA).

[2] = system: atopic dermatitis animal model; assay: Histopathological examination of ear epidermis and dermis (H&E scoring); assay type: in vivo, NC/Nga mouse; settings: infiltration by inflammatory cells, p<0.05, FIGS. 8 and 9
Description: After the ear auricle of the NC/Nga mouse was shaved with a razor, the epilating agent was applied in an appropriate amount for the complete depilation. After the epilating agent was wiped off, Then, 100 mg of the AD-inducing reagent shown in Table 2 as below was uniformly applied to the ear auricle using a micropipette tip, thereby inducing atopic dermatitis for the first time. After shaving with a razor for necessary, 150 μL of a 4% SDS aqueous solution was uniformly applied to the ear auricle using a micropipette, dried with a cold air using a dryer, and air-dried for about 2 to 3 hours. Then, 100 mg of the same AD-inducing reagent was uniformly applied to the ear auricle using a micropipette tip, thereby inducing atopic dermatitis after 2 times. All treatments were carried out twice a week to be 6 times for a total of 3 weeks, thereby producing atopic dermatitis animal model. The mice of groups 2 to 5 were obtained by the atopic dermatitis animal model prepared in Experimental Method 3 as described above. The experimental substance and the control substance were uniformly applied to the ear auricle using a micropipette tip. From the day of the experimental substance administration (Day 0) to the day of the autopsy (Day 14), they were administered once a day for 2 weeks. On the day of the autopsy, ears were removed for the histopathological examination and fixed in 10% neutral buffered formalin solution. The fixed tissues were subject to the general tissue treatment such as reprofiling, dehydration, paraffin embedding, and dissection, thereby preparing specimens for histopathological examination. Then, hematoxylin and eosin (H & E) and TUNEL assays were performed on histopathologic specimens, and the light microscopy (Olympus BX53, Japan) was used to observe histopathologic changes. In the histopathologic evaluation using hematoxylin and eosin staining slides, in order to compare the degree of the lesion with the induced control group, the most severe lesion was selected, and then the hypertrophy, hyperkeratosis and infiltration by inflammatory cells were evaluated in the epidermis. In the dermis, the infiltration by inflammatory cells was evaluated. Scoring criteria are the same as 0 (no symptoms), 1 (mild), 2 (moderate), and 3 (severe) (Taniguchi Y et al 2003).

IgE = assay: ELISA analysis of serum IgE in atopic dermatitis animal model; settings: day of autopsy (Day 14)
HeLa cells = assay: ACP-tetrapeptide cell membrane permeation experiment; assay type: cell-based; settings: 3, 15 and 30 μM ACP-tetrapeptide-FITC for 3 hours, fluorescence microscopy, FIG. 14
Description: HeLa cells were inoculated in a 12-well plate containing glass at a density of 1×10^5 cells/well and cultured for 24 hours to attach the cells to the glass. Then, HeLa cells were treated with 3 μM ACP-FITC peptide and 3, 15, and 30 μM ACP-tetrapeptide-FITC peptide for 3 hours. After 3 hours, the cells were washed three times with PBS. Then, the cells were fixed with 3.7% formaldehyde for 20 minutes and treated with PBS containing 0.2% Triton X-100 to increase cell permeability. Then, the cells were blocked with 3% BSA for 1 hour, reacted with a tubulin antibody (Santa Cruz Biotechnology, U.S.A.) at room temperature for 2 hours, and washed three times with PBS. Next, the cells were treated with a Cy3-conjugated secondary antibody (Jackson ImmunoResearch, USA) at room temperature for 1 hour, washed twice with PBS, and then stained with 4′,6-diamidino-2-phenylindole (DAPI) for 10 minutes. Finally, the HeLa cell-attached glass was removed and mounted on a sliding glass. The cells were observed under a fluorescence microscope (DMil, Leica, Germany).

[3] = system: atopic dermatitis animal model; assay: Ear thickness measurement in atopic dermatitis animal model; assay type: in vivo, NC/Nga mouse; settings: FIG. 2
Description: After the ear auricle of the NC/Nga mouse was shaved with a razor, the epilating agent was applied in an appropriate amount for the complete depilation. After the epilating agent was wiped off, Then, 100 mg of the AD-inducing reagent shown in Table 2 as below was uniformly applied to the ear auricle using a micropipette tip, thereby inducing atopic dermatitis for the first time. After shaving with a razor for necessary, 150 μL of a 4% SDS aqueous solution was uniformly applied to the ear auricle using a micropipette, dried with a cold air using a dryer, and air-dried for about 2 to 3 hours. Then, 100 mg of the same AD-inducing reagent was uniformly applied to the ear auricle using a micropipette tip, thereby inducing atopic dermatitis after 2 times. All treatments were carried out twice a week to be 6 times for a total of 3 weeks, thereby producing atopic dermatitis animal model. The mice of groups 2 to 5 were obtained by the atopic dermatitis animal model prepared in Experimental Method 3 as described above. The experimental substance and the control substance were uniformly applied to the ear auricle using a micropipette tip. From the day of the experimental substance administration (Day 0) to the day of the autopsy (Day 14), they were administered once a day for 2 weeks. Ear thickness was measured for each individual by calipers, and the ear area was photographed. Ear thickness measurement and photographing were performed once a week on the day of starting the experimental substance administration and thereafter.

histamine = assay: ELISA analysis of serum histamine in atopic dermatitis animal model; assay type: in vivo, NC/Nga mouse; settings: day of autopsy (Day 14)
Description: as §1, §2, §3, §4
On the day of the autopsy, blood samples were collected from the abdominal vein using a syringe. The serum isolated from the blood was analyzed for IgE and histamine using an ELISA kit.

VKCFNCGKEGHTARNCRAPRKKGCWKCGKEGHQMKDCTERLYE (ACP-tetrapeptide) [ACP cell penetrating peptide linked at the N-terminal of the tetrapeptide]
angiogenesis (Isolectin B4 staining) ([1]; FIG. 10): lower than that of the inducted control group | inflammatory cell inflow (F4/80 staining) ([1]; FIG. 11): lower than that of the inducted control group | keratinization and fibrosis (cytokeratin staining) ([1]; FIG. 12): lower than that of the inducted control group | epidermis score level compared with group 2 ([2]; hypertrophy, hyperkeratosis): significantly lower | dermis score level compared with group 2 [2]: significantly lower | IgE level compared with prednisolone treated group (IgE; FIG. 7): lower than that of the prednisolone treated group | IgE level compared with group 2 (induced control) (IgE; p<0.001 or p<0.01, FIG. 7): significantly lower | IgE level compared with normal control group (IgE; p<0.001 or p<0.01, FIG. 7): significantly higher | cell membrane permeability (transfer into cells) (HeLa cells): transferred into the cells through ACP in a concentration-dependent manner without aggregation in the cell membrane | ear thickness compared with induced control group (group 2) ([3]; 7th and 14th day after administration, tetrapeptide 0.622, ACP-tetrapeptide 4.987, prednisolone 50 μg/ear once a day, p<0.001 or p<0.01): significantly thinner | ear thickness compared with normal control group (group 1) ([3]; 14th day after administration, p<0.001): significantly thicker | histamine level compared with prednisolone treated group (histamine; FIG. 7): lower than that of the prednisolone treated group | histamine level compared with group 2 (induced control) (histamine; p<0.001 or p<0.01, FIG. 7): significantly lower
